Test results from paper PMC8685421 (Frontiers in Pharmacology, 2021).
Where a SMILES comes first, the peptide text is derived from it. Bridges are numbered along the chain shown (N, C = ends).

Experiments:
[1] = system: Kv2.1 channel; conditions: ref Chen et al., 2012; Bemporad et al., 2006; cited from earlier work
Source text: The venom of the spider Grammostola rosea contains several classes of peptide toxins that target ion channels (Figure 1A). […] Due to poor heterologous expression in mammal cells, pharmacological studies of the Nav1.9 channel have lagged. Previously, we succeeded in achieving functional ...

[2] = system: Nav1.7 channel; set-up: method as in 3 sources, one per row (each row's own in cited_ref): ref Murray et al., 2015 ||| ref Chen et al., 2020 ||| ref Xiao et al., 2010; conditions: ProTx-II; ref Xiao et al., 2010; cited from earlier work
[3] = system: voltage sensor of Nav channels; conditions: ref Xiao et al., 2008, 2010, Zhou et al., 2020, Liu et al., 2013; cited from earlier work
Source text: Gating modifier toxins typically affect channel gating by regulating the voltage-sensor of the channel. […] Ther ...

[4] = target: T1, Nav1.4 (Rattus norvegicus, UniProt P15390); experiment: Whole-cell patch-clamp, Nav1.4 current in HEK293T cells; assay type: cell-based; conditions: 50 ms steps to −10 mV from −90 mV, n = 4–6, read-out: IC50 for inhibition of Nav1.4 current
T1 construct: expressed in transfected cells; host or cells: HEK293T
Source text: (§1) Rat Nav1.4, human Nav1.7 and rat Nav1.8 cDNA clones were kindly gift from Dr. Theodore Cummins (Stark Neurosciences Research Institute, Indiana University School of Medicine, Indianapolis, IN, United States) and were subcloned into the pCMV or pCDNA3.1-blank vectors. Human Nav1.9 was subcloned into the pEGFP-N1 vector. The C-terminal of hNav1.9 was linked to GFP to construct a fusion protein channel (hNav1.9-eGFP), which was as described in our previous studies ([Zhou et al., 2017]). Mutations were made using the site-directed mutation method or recombination-based cloning using GenBuilder™ Cloning Kit (GenScript, United States). Primers presented in Supplementary Tables 1–4. All mutations were verified by DNA sequencing.
(§2) ND7/23 and HEK293T cells were maintained at 37°C in a humidified 5% CO2 incubator in Dulbecco’s Modified Eagle’s Medium (DMEM) supplemented with 10% fetal bovine serum, 100 μg/ml streptomycin, 100 U/ml penicillin, and 2 mM L-glutamine. The cells were trypsinized, diluted with 1 ml of culture medium, and seeded at a 1:5 ratio in 35 mm Petri dishes for culture. When grown to 80–90% confluence, the ND7/23 cells were transfected with hNav1.9-GFP or hNav1.9-GFP mutants using the X-tremeGENE HP DNA Transfection Reagent (Roche, Basel, Switzerland) according to the manufacturer’s instructions. […]

[5] = target: T2, Nav1.9 (Homo sapiens, UniProt Q9UI33); experiment: Whole-cell patch-clamp, fast inactivation of Nav1.9 in ND7/23 cells; assay type: cell-based; conditions: 100 ms depolarization to −40 mV from −120 mV, Hill fit, mean ± SEM, n = 6, read-out: EC50 for inhibition of the fast inactivation of Nav1.9
T2 construct: expressed in transfected cells; host or cells: ND7/23
T2 sequence (Q9UI33 whole entry): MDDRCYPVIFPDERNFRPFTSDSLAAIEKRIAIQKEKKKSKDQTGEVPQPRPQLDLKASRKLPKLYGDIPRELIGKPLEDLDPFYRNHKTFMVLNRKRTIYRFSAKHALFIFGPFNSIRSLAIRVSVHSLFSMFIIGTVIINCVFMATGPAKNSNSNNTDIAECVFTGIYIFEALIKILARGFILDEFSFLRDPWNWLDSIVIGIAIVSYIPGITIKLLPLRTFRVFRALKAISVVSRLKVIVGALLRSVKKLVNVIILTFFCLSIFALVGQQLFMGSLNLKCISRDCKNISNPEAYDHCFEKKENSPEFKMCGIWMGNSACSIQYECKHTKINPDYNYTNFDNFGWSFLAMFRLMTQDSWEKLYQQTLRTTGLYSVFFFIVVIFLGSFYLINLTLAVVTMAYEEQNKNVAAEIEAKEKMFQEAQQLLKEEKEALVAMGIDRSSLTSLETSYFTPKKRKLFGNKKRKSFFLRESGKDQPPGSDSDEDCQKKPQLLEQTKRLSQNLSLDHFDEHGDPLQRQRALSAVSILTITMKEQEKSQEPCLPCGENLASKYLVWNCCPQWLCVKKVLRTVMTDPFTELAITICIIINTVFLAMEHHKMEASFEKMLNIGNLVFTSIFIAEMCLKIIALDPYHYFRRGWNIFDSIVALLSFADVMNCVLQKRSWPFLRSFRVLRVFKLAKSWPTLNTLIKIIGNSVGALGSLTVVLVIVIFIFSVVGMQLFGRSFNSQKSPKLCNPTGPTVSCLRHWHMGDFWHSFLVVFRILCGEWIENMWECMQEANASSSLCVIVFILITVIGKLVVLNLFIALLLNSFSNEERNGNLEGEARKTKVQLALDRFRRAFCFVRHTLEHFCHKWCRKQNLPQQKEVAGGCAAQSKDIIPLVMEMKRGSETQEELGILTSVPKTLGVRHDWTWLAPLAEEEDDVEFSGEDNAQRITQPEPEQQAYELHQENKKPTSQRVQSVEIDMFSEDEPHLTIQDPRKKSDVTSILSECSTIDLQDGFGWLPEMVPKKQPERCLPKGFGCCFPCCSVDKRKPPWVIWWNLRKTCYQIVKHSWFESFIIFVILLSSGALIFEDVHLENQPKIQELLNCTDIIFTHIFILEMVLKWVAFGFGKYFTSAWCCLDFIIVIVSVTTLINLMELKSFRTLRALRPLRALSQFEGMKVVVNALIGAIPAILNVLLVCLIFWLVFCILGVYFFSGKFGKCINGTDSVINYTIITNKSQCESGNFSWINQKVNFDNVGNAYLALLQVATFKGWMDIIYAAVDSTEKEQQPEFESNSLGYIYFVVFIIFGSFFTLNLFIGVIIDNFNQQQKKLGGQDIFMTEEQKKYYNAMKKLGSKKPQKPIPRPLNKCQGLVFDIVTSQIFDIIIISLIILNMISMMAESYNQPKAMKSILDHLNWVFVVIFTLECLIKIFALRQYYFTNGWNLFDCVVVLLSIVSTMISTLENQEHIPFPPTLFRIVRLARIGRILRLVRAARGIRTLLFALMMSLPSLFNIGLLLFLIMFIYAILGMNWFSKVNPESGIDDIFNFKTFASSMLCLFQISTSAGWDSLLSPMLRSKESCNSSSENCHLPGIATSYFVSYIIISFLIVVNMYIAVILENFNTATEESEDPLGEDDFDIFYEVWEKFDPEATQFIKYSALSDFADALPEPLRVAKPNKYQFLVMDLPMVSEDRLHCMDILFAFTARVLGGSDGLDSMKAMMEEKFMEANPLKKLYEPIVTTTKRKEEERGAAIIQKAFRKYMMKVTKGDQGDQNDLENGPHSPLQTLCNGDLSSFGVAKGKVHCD
Source text: as §1, §2

[6] = target: T3, Nav1.9/1.8 DIV VSD (Homo sapiens, UniProt Q9UI33, A1385V/A1393E/C1434F/D1399G/DEL1452-1455/H1400R/I1367A/I1373M/I1377C/I1397V/I1408V/I1415M/I1417M/I1446F/I1464V/INS1447AILK/K1392E/K1395T/L1401I/L1411G/L1414V/L1431V/L1438I/M1394K/M1445L/N1389E/P1391G/P1456Y/P1458S/R1481K/S1365R/S1374V/S1382T/S1387T/S1396K/T1444L/T1448S/V1404F/V1407A/V1435I/V1442G/V1465I/V1477I/W1403Q/Y1388D); experiment: Patch-clamp, chimera Nav1.9/1.8 DIV VSD; assay type: cell-based, human Nav1.9 / rat Nav1.8; conditions: mean ± SEM, n = 4; I95/Ipeak; read-out: EC50 for inhibition of the fast inactivation
T3 construct: expressed in transfected cells; host or cells: ND7/23
T3 sequence (Q9UI33 with tags, fused parts or gaps with the stated changes): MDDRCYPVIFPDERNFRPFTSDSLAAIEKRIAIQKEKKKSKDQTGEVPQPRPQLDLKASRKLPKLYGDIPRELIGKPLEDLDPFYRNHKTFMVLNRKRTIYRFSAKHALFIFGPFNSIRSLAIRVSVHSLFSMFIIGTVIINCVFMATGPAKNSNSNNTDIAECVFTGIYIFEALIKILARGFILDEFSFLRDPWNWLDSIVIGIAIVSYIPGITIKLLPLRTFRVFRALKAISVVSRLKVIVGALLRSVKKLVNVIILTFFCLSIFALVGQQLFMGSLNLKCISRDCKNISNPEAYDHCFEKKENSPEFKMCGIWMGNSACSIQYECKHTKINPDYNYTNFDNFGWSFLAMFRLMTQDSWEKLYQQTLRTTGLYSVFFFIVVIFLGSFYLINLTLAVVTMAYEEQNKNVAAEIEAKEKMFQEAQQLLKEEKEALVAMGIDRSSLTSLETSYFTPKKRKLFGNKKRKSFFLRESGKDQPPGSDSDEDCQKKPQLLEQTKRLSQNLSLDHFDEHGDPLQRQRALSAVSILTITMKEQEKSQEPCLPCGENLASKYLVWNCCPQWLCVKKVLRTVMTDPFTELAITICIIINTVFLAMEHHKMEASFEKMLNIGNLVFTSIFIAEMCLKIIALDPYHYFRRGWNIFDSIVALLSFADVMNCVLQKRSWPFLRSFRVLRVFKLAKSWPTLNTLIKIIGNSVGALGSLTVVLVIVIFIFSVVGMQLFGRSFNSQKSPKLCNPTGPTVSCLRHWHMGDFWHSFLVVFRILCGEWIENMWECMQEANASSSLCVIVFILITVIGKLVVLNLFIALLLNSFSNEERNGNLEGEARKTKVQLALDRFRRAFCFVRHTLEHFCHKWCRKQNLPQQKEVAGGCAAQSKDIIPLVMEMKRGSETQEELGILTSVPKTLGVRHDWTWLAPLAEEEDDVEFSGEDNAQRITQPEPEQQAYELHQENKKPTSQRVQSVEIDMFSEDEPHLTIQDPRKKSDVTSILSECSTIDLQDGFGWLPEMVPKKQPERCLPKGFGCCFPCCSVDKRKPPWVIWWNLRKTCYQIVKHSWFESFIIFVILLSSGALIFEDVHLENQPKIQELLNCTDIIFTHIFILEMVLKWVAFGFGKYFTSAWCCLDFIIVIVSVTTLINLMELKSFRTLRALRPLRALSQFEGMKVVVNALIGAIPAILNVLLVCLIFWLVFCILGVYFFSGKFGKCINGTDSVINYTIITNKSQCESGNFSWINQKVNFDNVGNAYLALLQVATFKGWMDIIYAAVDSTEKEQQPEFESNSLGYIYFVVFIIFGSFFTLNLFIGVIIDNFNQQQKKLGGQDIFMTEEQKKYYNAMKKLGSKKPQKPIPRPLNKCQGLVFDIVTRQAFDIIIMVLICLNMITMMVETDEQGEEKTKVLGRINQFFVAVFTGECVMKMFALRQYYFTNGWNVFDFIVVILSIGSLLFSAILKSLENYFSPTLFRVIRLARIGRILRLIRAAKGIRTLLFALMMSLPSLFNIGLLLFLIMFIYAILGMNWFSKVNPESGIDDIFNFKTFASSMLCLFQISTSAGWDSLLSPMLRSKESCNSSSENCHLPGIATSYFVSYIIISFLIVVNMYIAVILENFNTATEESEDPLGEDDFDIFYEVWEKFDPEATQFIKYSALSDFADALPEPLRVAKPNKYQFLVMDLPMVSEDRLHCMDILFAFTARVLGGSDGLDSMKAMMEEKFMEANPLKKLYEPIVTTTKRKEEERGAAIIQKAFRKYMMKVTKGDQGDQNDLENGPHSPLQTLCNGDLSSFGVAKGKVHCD
Source text: as §1, §2

[7] = target: T4, Nav1.7 (Homo sapiens, UniProt Q15858); experiment: Whole-cell patch-clamp, Nav1.7 current in HEK293T cells; assay type: cell-based; conditions: 50 ms steps to −10 mV from −90 mV, n = 4–6, read-out: IC50 for inhibition of Nav1.7 current
T4 construct: expressed in transfected cells; host or cells: HEK293T
Source text: as §1, §2

## HaTx1 (ECRYLFGGCKTTSDCCKHLGCKFRDKYCAWDFTFS; UniProt P56852 50-84, looked up)
[1]
  inhibition of Kv2.1 currents: significantly inhibit the currents of the Kv2.1 channel

## ProTx-II
[2]
  inhibition of Nav1.7 current, voltage dependence: inhibits the current of the Nav1.7 channel with a significant voltage dependence

## HWTX-IV
[3]
  reversal of toxin binding by depolarization: reversed by prolonged strong depolarizations

## CC[C@H](C)[C@@H]1NC(=O)[C@H](CC(N)=O)NC(=O)[C@@H]2CCCN2C(=O)[C@H](Cc2c[nH]c3ccccc23)NC(=O)[C@H](CCCCN)NC(=O)[C@H](CCCNC(=N)N)NC(=O)[C@H](CCCCN)NC(=O)[C@@H]2CSSC[C@@H]3NC(=O)[C@H](CO)NC(=O)CNC(=O)[C@H](Cc4c[nH]c5ccccc45)NC(=O)[C@H](Cc4ccccc4)NC(=O)[C@H](CCC(N)=O)NC(=O)[C@H](CCCCN)NC(=O)[C@@H](NC(=O)[C@@H](N)CCC(=O)O)CSSC[C@H](NC(=O)[C@H](CSSC[C@@H](C(=O)N[C@@H](CC(C)C)C(=O)N[C@@H](Cc4c[nH]c5ccccc45)C(=O)N[C@@H](CC(=O)O)C(=O)NCC(=O)N[C@H](C(=O)N[C@@H](Cc4ccccc4)C(=O)N[C@@H](CO)C(=O)N[C@@H](CCCCN)C(=O)O)[C@@H](C)O)NC1=O)NC(=O)[C@H](CC(=O)O)NC(=O)[C@H](CO)NC(=O)[C@H](CC(=O)O)NC(=O)[C@H](CCCNC(=N)N)NC(=O)[C@H](CO)NC3=O)C(=O)N[C@@H](CCCCN)C(=O)N[C@@H](Cc1c[nH]cn1)C(=O)N[C@@H](CC(C)C)C(=O)NCC(=O)N2 [Gr4b, δ-theraphotoxin-Gr4b] (H-ECKQFWGSCSRDSDCCKHLGCKRKWPNICLWDGTFSK-OH; disulfide 2-16, 9-21, 15-29)
[4]
  IC50: 411 ± 184 nM
[5]
  EC50: 25 ± 1 nM
[6]
  EC50: 1500 ± 250 nM
[7]
  IC50: 27 ± 3 nM
